# Results as given in patent US8076112B2, “Fermentation processes” (priority 2006, dated 2011).
# Test system: Lactobacillus paracasei
# Experiment: Effect of Lysozyme on Lactobacillus in fermentation medium (liquefied corn mash), bacterial plating and counting
# Type: cell-based
# Conditions: 0-100-300-1000 mg/L Lysozyme in corn mash pH 5.05, 32° C., 0, 24 and 48 hours (FIG. 4)
# Method: Milled corn was liquefied in an aqueous slurry (pH 5.6) using 50 NU/g DS Bacterial Alpha-Amylase A by heating until a temperature of 85° C. (approx 20 minutes) was reached. Thereafter the slurry is cooked for another 60 minutes. A sample of the liquefied corn mash (CM) was pH-adjusted to 5.05 with H2SO4. After pH adjustment, the mash was split up into approximately 59 of CM and added to 36 15 mL plastic centrifuge tubes. Various amounts of L. paracasei were then added to give an initial cell count of about 1-3×10^6/mL. Different dosages (0-100-300-1000 mg/L) of Lysozyme (Sigma) were also added to each tube. The tubes were then thoroughly vortexed and placed in a rack in 32° C. water bath. Tubes were pulled after 0, 24, and 48 hours for bacterial plating and counting. No additional Lysozyme was added to any of the tubes after time zero.
substance,measurement,value
"Lysozyme: Lysozyme from hen egg white, cat # L-7651, purchased from Sigma",Antibacterial effect on Lactobacillus (growth inhibition),effective inhibiting growth of Lactobacillus paracasei
